Here are results for twelve molecules from ChEMBL document CHEMBL4715783, “Insights into tyrosinase inhibition by compounds isolated from Greyia radlkoferi Szyszyl using biological activity, molecular docking and gene expression analysis” (Bioorg Med Chem, 2016).

Data set [1] deals with T1, Mushroom tyrosinase (Agaricus bisporus) (UniProt O42713+Q00024+C7FF04+C7FF05). The data set can be described thus: Inhibition of monophenolase activity of mushroom tyrosinase assessed as reduction in dopachrome formation using L-Tyrosine substrate incubated for 30 mins by spectrophotometry relative to control.
The test system of data set [2] is B16-F10. In words: Inhibition of melanin production in mouse B16-F10 cells at 12.5 ug/ml relative to control. It counts as functional.
The subject of data set [3] is B16-F10. The data set can be described thus: Cytotoxicity against mouse B16-F10 cells assessed as reduction in cell viability incubated for 72 hrs by XTT assay. It counts as cell-based. The following applies: B16-F10, 72 h.
Data set [4] can be described thus: Solubility of compound in water at >[…] uM. It counts as physicochemical. The following applies: buffer; dose >50 µM.
For data set [5], the target named is T2, Mushroom tyrosinase (Agaricus bisporus, UniProt O42713+Q00024+C7FF04+C7FF05). The data set can be described thus: Inhibition of monophenolase activity of mushroom tyrosinase using L-Tyrosine substrate incubated for 5 mins followed by substrate addition and measured for 30 mins by colorimetry.
In data set [6] the test system is B16-F10. In words: Inhibition of melanin production in mouse B16-F10 cells at 25 ug/ml relative to control. It counts as functional.
Data set [7] has as its target T2, Mushroom tyrosinase. The data set can be described thus: Inhibition of diphenolase activity of mushroom tyrosinase assessed as reduction in dopachrome formation using L-DOPA substrate incubated for 30 mins.
The test system of data set [8] is B16-F10. The data set can be described thus: Inhibition of melanin production in mouse B16-F10 cells at 12.5 to 25 ug/ml relative to control. Particulars: dose 12.5-25 µg/ml. It counts as functional.
Data set [9] concerns the target T2, Mushroom tyrosinase. In words: Inhibition of monophenolase activity of mushroom tyrosinase using L-Tyrosine substrate incubated for 10 mins followed by substrate addition and measured for 15 mins.
The nature of another data set: cells. The following applies: Mus musculus, B16-BL6, 120 h.
Data set [10] deals with T2, Mushroom tyrosinase. In words: Inhibition of monophenolase activity of mushroom tyrosinase using L-Tyrosine substrate incubated for 30 mins by spectrophotometry.
In data set [11] the test system is B16-F10. The data set can be described thus: Inhibition of melanin production in mouse B16-F10 cells at 21.42 ug/ml relative to control. The following applies: dose 21.42 µg/ml. The class given is functional, cell-based.
Data set [12] concerns B16-F10. The data set can be described thus: Inhibition of melanin production in mouse B16-F10 cells at 6.25 ug/ml relative to control. It counts as functional.
Data set [13] addresses T1, Mushroom tyrosinase (Agaricus bisporus). The data set can be described thus: Inhibition of monophenolase activity of mushroom tyrosinase at 100 uM relative to control.
The subject of another data set is B16-F1. The data set can be described thus: Inhibition of melanin production in C57BL/6J mouse B16-F1 cells incubated for 5 days. The class given is functional, cell-based. Particulars: B16-F1, 120 h.
For data set [14], the system named is B16-F10. The data set can be described thus: Inhibition of melanin production in mouse B16-F10 cells at 100 ug/ml relative to control. The class given is functional.
The nature of data set [15]: Inhibition of monophenolase activity of tyrosinase in C57BL/6 mouse melan-a cells incubated for 72 hrs by bradford method.
The target in data set [16] is T2, Mushroom tyrosinase. In words: Inhibition of monophenolase activity of mushroom tyrosinase using L-Tyrosine substrate incubated for 10 mins followed by substrate addition and measured for 20 mins.
Data set [17] addresses T2, Mushroom tyrosinase. In words: Inhibition of monophenolase activity of mushroom tyrosinase.

≈ marks a conversion by molar mass, not a printed value. Calls of active or inactive are those of the source. The rule behind the calls is not given here. A value given as a limit tells only on which side of the number the result lay.

Description for cells: Cytotoxicity against mouse B16-BL6 cells assessed as reduction in cell viability incubated for 5 days by MTT assay

On to `O=c1c(O)c(-c2ccccc2)oc2cc(O)cc(O)c12` [GALANGIN], for which, in data set [1], the inhibition came to 20%. The molecule further had an inhibition at 12.5 µg/mL in the data set with B16-F10 [2] of 30%. Further, the half-maximal inhibitory concentration (IC50) was above 200 µM with B16-F10 [3], 420.37 µM against Mushroom tyrosinase [5] and 101 µM on Mushroom tyrosinase [7]. For the same molecule, in [4], the solubility result is recorded as “Insoluble”. Besides, at 25 µg/mL the inhibition with B16-F10 [6] was 40%.
In the case of `O=C(CCc1ccccc1)c1c(O)cc(O)cc1O`, the IC50 amounted to 219 µM in the data set on B16-F10 [3] and 68.48 µM at Mushroom tyrosinase [5]. For the same molecule, the “inhibition (INH)” value with B16-F10 [8] was 25%.
At Mushroom tyrosinase [9], `O=C(/C=C/c1ccc(O)cc1O)c1ccc(O)cc1O` yielded an IC50 of 0.06 µM.
As to `O=c1c(-c2ccc(O)cc2)coc2cc(O)cc(O)c12` [GENISTEIN], the IC50 is 4.18 µg/mL (≈ 15.5 µM) in “cells”, 822 µM at Mushroom tyrosinase [10], 79.2 µM in the data set on B16-F10 [3] and above 200 µM against Mushroom tyrosinase [5]. In addition, the inhibition entry in the data set on B16-F10 [11] is “inactive”.
In the case of `COc1cc(O)c(C(=O)CCc2ccccc2)c(O)c1`, the inhibition at 6.25 µg/mL in the data set on B16-F10 [12] came out at 10%. Also, the concentration for half-maximal inhibition (IC50) is 373 µM in the data set with B16-F10 [3] and above 200 µM against Mushroom tyrosinase [5].
In data set [13], `O=C1C[C@@H](c2ccc(O)cc2)Oc2cc(O)cc(O)c21` yielded an inhibition of 2.8%.
In the case of `O=C1C[C@@H](c2ccccc2)Oc2cc(O)cc(O)c21` [PINOCEMBRIN], in the data set on B16-F10 [2], the inhibition at 12.5 µg/mL amounted to 8%. For the same molecule, the results for the IC50 with B16-F10 [3] and at Mushroom tyrosinase [5] were 30.1 µM and above 200 µM, respectively.
Regarding `OC[C@H]1O[C@@H](Oc2ccc(O)cc2)[C@H](O)[C@@H](O)[C@@H]1O` [ARBUTIN], the IC50 turned out to be 122 µM in the data set with B16-F1 and 391 µM with B16-F10 [3]. In the data set on B16-F10 [14], this molecule yielded an inhibition at 100 µg/mL of 78%.
The molecule `COc1cc(O)c(C(=O)[C@@H]2[C@H](CC=C(C)C)C(C)=CC[C@H]2c2ccccc2)c(O)c1` [PANDURATIN A] yielded a half-inhibitory concentration (IC50) in [15] of 8.2 µM.
Regarding `CC(C)=CCc1c(O)cc(O)c2c1O[C@H](c1ccccc1)CC2=O` [GLABRANIN], the half-maximal inhibitory concentration (IC50) at Mushroom tyrosinase [16] was 80.6 µM.
For `CC(C)=CCc1c(O)ccc(C(=O)/C=C/c2ccc(O)cc2O)c1O` [MORACHALCONE A], the IC50 against Mushroom tyrosinase [17] is 0.14 µM.
On to `Cc1c(O)c(C)c2c(c1O)C(=O)C[C@@H](c1ccccc1)O2` [DEMETHOXYMATTEUCINOL], for which the IC50 against Mushroom tyrosinase [16] is 97.6 µM.
